A short description of the assay: Protection against Bacillus anthracis lethal toxin-mediated cytotoxicity in mouse RAW264.7 cells assessed as change in viability after 24 hrs by WST1 dye reduction assay.
With `CC(C)COC[C@H](CN(Cc1ccccc1)c1ccccc1)N1CCCC1`, the half-inhibitory concentration (IC50) amounted to 4.8 µM. For the molecule `CN(C)CCCn1cc(C2=C(c3c[nH]c4ccccc34)C(=O)NC2=O)c2ccccc21` [2-[1-(3-dimethylaminopropyl)-indol-3-yl]-3-(indol-3-yl)maleimide], the concentration for half-maximal inhibition (IC50) worked out at 1.5 µM. Regarding `CCCCCCCCCCCCC/C=C/[C@@H](O)[C@H](CO)N(C)C` [(E)-(2S,3R)-2-Dimethylamino-octadec-4-ene-1,3-diol], the half-inhibitory concentration (IC50) is 2.3 µM.

Values taken from BindingDB's records for doi:10.1128/AAC.01184-06 (University of California, 2007).
